Reference: patent publication US20020169175A1, “Pharmaceutically acceptable salts of heterocyclic compounds” (DR. REDDY'S LABORATORIES LTD., priority 2001, published 2002)
Structures can show the parent of a compound that is named as a salt. Where two headings read alike, the source gives them in different places. Values belong to the compound of their own block, whether it stands above or below them.

Legend:
[1] = Single dose oral pharmacokinetic studies in male Wistar rats; type: in vivo, rat; conditions: fasted, suspension in 0.25% sodium CMC; for half-life: read-out: t½ (converted)
Protocol: Single Dose Oral Pharmacokinetic Studies
Male Wistar rats (220-250 gm) were used in the experiments. The animals were maintained under standard laboratory conditions and had free access to feed and water ad libitum. Before experimentation animals were fasted overnight (˜15 h) during which they had free access to water ad libitum.
An amount equivalent to 30 mg of drug was weighed accurately and transferred into a clean mortar and triturated to obtain a fine powder. To this 0.5 ml of 0.25% sodium carboxy methyl cellulose (sodium CMC) was added to obtain a paste. To the obtained paste remaining 2.5 ml of sodium CMC was added to make up the volume to 3 ml. Based on the animal weight appropriate volume (body weight×3) of the prepared suspension was administered through oral gavage.
After dosing, at designated time points (0.5, 1, 2, 3, 5, 8, 12 and 24 h) 200 μl of blood was collected from retro orbital plexus into 0.5 ml eppendorff tubes containing EDTA (10 μl of 200 mg/ml solution in Milli Q water). Blood was centrifuged at 12,800 rpm for 5 min and obtained plasma and stored at −20° C. till further analysis.
100μl plasma was transferred into a clean and dry centrifuge tube. To this internal standard (10 μl of 100 μg/ml) was added and extracted with 2 ml of extraction recovery solvent. The contents were vortexed for 2 min, followed by centrifugation for 10 min at 2800 rpm. Clear organic layer (2×0.75 ml) was separated and dried under nitrogen gas at 50° C. The residue was reconstituted with 150 μl of mobile phase and vortexed for 20 sec, from this 50 μl was injected onto HPLC column.
Pharmacokinetic parameters were calculated by non-compartmental model analysis. The peak plasma concentration (Cmax) and the corresponding time (Tmax)were directly obtained from the raw data. The area under the plasma concentration versus time curve up to the last quantifiable time point, AUC(0−t) was obtained by the linear and log-linear trapezoidal summation. The AUC(0−t) extrapolated to infinity (i.e., AUC(0−∞)) by adding the quotient of Clast/Kel, where Clast represents the last measurable time concentration and Kel represents the apparent terminal rate constant. Kel was calculated by the linear regression of the log-transformed concentrations of the drug in the terminal phase. The half-life of the terminal elimination phase was obtained using the relationship t½=0.693/Kel.

[2] = male, Wistar, rat, plasma, po, 30 mg/kg
[3] = male, Wistar, rat, plasma, po, 30 mg/kg, read-out: AUC (0-t)
[4] = male, Wistar, rat, plasma, po, 30 mg/kg, read-out: Cmax
[5] = male, Wistar, rat, plasma, po, 30 mg/kg, read-out: Tmax

- melting point: 110 to 112 °C
Compound: CCCc1nn(C)c2c(=O)n(CCOc3ccc(C[C@H](OCC)C(=O)O)cc3)c(C)nc12 (as salt: salt) [Example 24, 3-[4-[2-(1,5-Dimethyl-7-oxo-3-propyl-6,7-dihydro-1H-pyrazolo[4,3-d]pyrimidin-6-yl)ethoxy]phenyl]-2-ethoxypropionic acid aminoguanidine hydrogen carbonate salt]

- Kel [1]: 0.29 h⁻¹
- AUC(0-inf) [1, 2]: 92600 ng·h/mL
- AUC(0-t) [1, 3]: 90100 ng·h/mL
- Cmax [1, 4]: 50400 ng/mL
- Tmax [1, 5]: 0.5 h
- half-life [1, 2]: 2.18 h
Compound: CCO[C@@H](Cc1ccc(OCCn2c(CC)nc(-c3ccccc3)cc2=O)cc1)C(=O)O [Example 48, (−)2-Ethoxy-3-[4-[2-[2-ethyl-6-oxo-4-phenyl-1,6-dihydropyrimidin-1-yl]ethoxy]phenyl]propanoic acid L-arginine salt]

- Kel [1]: 0.34 h⁻¹
- AUC(0-inf) [1, 2]: 83300 ng·h/mL
- AUC(0-t) [1, 3]: 82200 ng·h/mL
- Cmax [1, 4]: 39500 ng/mL
- Tmax [1, 5]: 0.5 h
- half-life [1, 2]: 2.07 h
Compound: CCO[C@@H](Cc1ccc(OCCn2c(CC)nc(-c3ccccc3)cc2=O)cc1)C(=O)[O-].[Na+] [Example 47, (−)2-Ethoxy-3-[4-[2-[2-ethyl-6-oxo-4-phenyl-1,6-dihydropyrimidin-1-yl]ethoxy]phenyl]propanoic acid sodium salt]

Compound: CCCc1nn(C)c2c(=O)n(CCOc3ccc(C[C@H](OCC)C(=O)O)cc3)c(CC)nc12 (as salt: salt) [Example 44, (−)-3-[4-[2-(1-Methyl-5-ethyl-7-oxo-3-propyl-6,7-dihydro-1H-pyrazolo[4,3-d]pyrimidin-6-yl)ethoxy]phenyl]-2-ethoxypropionic acid metformin salt]
- melting point: 118 °C

Compound: CCO[C@@H](Cc1ccc(OCCn2c(CC)nc3ccccc3c2=O)cc1)C(=O)O (as salt: salt) [Example 10, (−)-3-[4-[2-(2-Ethyl-4-oxo-3,4-dihydroquinazolin-3-yl)ethoxy]phenyl]-2-ethoxypropanoic acid magnesium salt]
- melting point: > 250 °C

Compound: CCO[C@@H](Cc1ccc(OCCn2c(CC)nc3ccccc3c2=O)cc1)C(=O)O (as salt: salt) [Example 4, (−)-3-[4-[2-(2-Ethyl-4-oxo-3,4-dihydroquinazolin-3-yl)ethoxy]phenyl]-2ethoxypropanoic acid lysine salt]
- melting point: 152 to 155 °C

Compound: CCO[C@@H](Cc1ccc(OCCn2c(CC)nc3ccccc3c2=O)cc1)C(=O)O [Example 7, (−)-3-[4-[2-(2-Ethyl-4-oxo-3,4-dihydroquinazolin-3-yl)ethoxy]phenyl]-2-ethoxypropanoic acid N-methyl glucamine salt]
- AUC (0-∞) [1]: 51430 ng·h/mL
- AUC(0-t) [1]: 51650 ng·h/mL
- Cmax [1]: 40250 ng/mL
- Kel [1]: 0.38 h⁻¹
- Tmax [1]: 0.90 h
- t½ [1]: 1.91 h

Compound: CCCc1nn(C)c2c(=O)n(CCOc3ccc(C[C@H](OCC)C(=O)O)cc3)c(CC)nc12 (as salt: salt) [Example 41, (−)-3-[4-[2-(1-Methyl-5-ethyl-7-oxo-3-propyl-6,7-dihydro-1H-pyrazolo[4,3-d]pyrimidin-6-yl)ethoxy]phenyl]-2-ethoxypropionic acid dicyclohexylamine salt]
- melting point: 138 to 140 °C

Compound: CCCc1nn(C)c2c(=O)n(CCOc3ccc(C[C@H](OCC)C(=O)O)cc3)c(CC)nc12 (as salt: salt) [Example 36, (−)-3-[4-[2-(1-Methyl-5-ethyl-7-oxo-3-propyl-6,7-dihydro-1H-pyrazolo[4,3-d]pyrimidin-6-yl)ethoxy]phenyl]-2-ethoxypropionic acid arginine salt]
- melting point: 235 °C

Compound: CCCc1nn(C)c2c(=O)n(CCOc3ccc(C[C@H](OCC)C(=O)O)cc3)c(CC)nc12 (as salt: salt) [Example 39, (−)-3-[4-[2-(1-Methyl-5-ethyl-7-oxo-3-propyl-6,7-dihydro-1H-pyrazolo[4,3-d]pyrimidin-6-yl)ethoxy]phenyl]-2-ethoxypropionic acid aminoguanidine hydrogen carbonate salt]
- melting point: 130 °C

Compound: CCCc1nn(C)c2c(=O)n(CCOc3ccc(C[C@H](OCC)C(=O)[O-])cc3)c(CC)nc12.[Li+] (stereo in doubt)
- melting point: 215 to 218 °C

Compound: CCCc1nn(C)c2c(=O)n(CCOc3ccc(C[C@H](OCC)C(=O)[O-])cc3)c(CC)nc12.[Na+] [Example 35, (−)-3-[4-[2-(1-Methyl-5-ethyl-7-oxo-3-propyl-6,7-dihydro-1H-pyrazolo[4,3-d]pyrimidin-6-yl)ethoxy]phenyl]-2-ethoxypropionic acid sodium salt]
- melting point: 112 to 114 °C

Compound: CCO[C@@H](Cc1ccc(OCCn2c(CC)nc3ccccc3c2=O)cc1)C(=O)O (as salt: salt) [Example 7, (−)-3-[4-[2-(2-Ethyl-4-oxo-3,4-dihydroquinazolin-3-yl)ethoxy]phenyl]-2-ethoxypropanoic acid N-methyl glucamine salt]
- melting point: 114 to 116 °C

Compound: CCO[C@@H](Cc1ccc(OCCn2c(CC)nc3ccccc3c2=O)cc1)C(=O)O [Example 10, (−)-3-[4-[2-(2-Ethyl-4-oxo-3,4-dihydroquinazolin-3-yl)ethoxy]phenyl]-2-ethoxypropanoic acid magnesium salt]
- AUC (0-∞) [1]: 74070 ng·h/mL
- AUC(0-t) [1]: 75890 ng·h/mL
- Cmax [1]: 54210 ng/mL
- Kel [1]: 0.34 h⁻¹
- Tmax [1]: 0.50 h
- t½ [1]: 2.16 h

Compound: CCO[C@@H](Cc1ccc(OCCn2c(CC)nc3ccccc3c2=O)cc1)C(=O)[O-].[Li+] (stereo in doubt)
- melting point: 245 to 247 °C

Compound: CCCc1nn(C)c2c(=O)n(CCOc3ccc(C[C@H](OCC)C(=O)[O-])cc3)c(CC)nc12.[K+] (stereo in doubt)
- melting point: 164 °C

Compound: CCO[C@@H](Cc1ccc(OCCn2c(CC)nc3ccccc3c2=O)cc1)C(=O)O [Example 4, (−)-3-[4-[2-(2-Ethyl-4-oxo-3,4-dihydroquinazolin-3-yl)ethoxy]phenyl]-2ethoxypropanoic acid lysine salt]
- Kel [1]: 0.31 h⁻¹
- AUC(0-inf) [1, 2]: 38400 ng·h/mL
- AUC(0-t) [1, 3]: 40600 ng·h/mL
- Cmax [1, 4]: 38700 ng/mL
- Tmax [1, 5]: 0.5 h
- half-life [1, 2]: 1.97 h

Compound: CCO[C@@H](Cc1ccc(OCCn2c(CC)nc3ccccc3c2=O)cc1)C(=O)O (as salt: salt) [Example 11, (−)-3-[4-[2-(2-Ethyl-4-oxo-3,4-dihydroquinazolin-3-yl)ethoxy]phenyl]-2-ethoxypropanoic acid arginine salt]
- melting point: 216 to 220 °C

Compound: CCCc1nn(C)c2c(=O)n(CCOc3ccc(C[C@H](OCC)C(=O)O)cc3)c(CC)nc12 [Example 40, (−)-3-[4-[2-(1-Methyl-5-ethyl-7-oxo-3-propyl-6,7-dihydro-1H-pyrazolo[4,3-d]pyrimidin-6-yl)ethoxy]phenyl]-2-ethoxypropionic acid tromethamine salt]
- Kel [1]: 0.60 h⁻¹
- Tmax [1]: 0.75 h
- AUC(0-inf) [1, 2]: 78600 ng·h/mL
- AUC(0-t) [1, 3]: 77800 ng·h/mL
- Cmax [1, 4]: 34200 ng/mL
- half-life [1, 2]: 1.2 h

Compound: CCCc1nn(C)c2c(=O)n(CCOc3ccc(C[C@H](OCC)C(=O)O)cc3)c(CC)nc12 (as salt: tromethamine) [Example 40, (−)-3-[4-[2-(1-Methyl-5-ethyl-7-oxo-3-propyl-6,7-dihydro-1H-pyrazolo[4,3-d]pyrimidin-6-yl)ethoxy]phenyl]-2-ethoxypropionic acid tromethamine salt]
- melting point: 116 to 118 °C

- Kel [1]: 0.32 h⁻¹
- AUC(0-inf) [1, 2]: 62900 ng·h/mL
- AUC(0-t) [1, 3]: 61200 ng·h/mL
- Cmax [1, 4]: 17700 ng/mL
- Tmax [1, 5]: 1.33 h
- half-life [1, 2]: 2.19 h
Compound: CCO[C@@H](Cc1ccc(OCCn2c(CC)nc(-c3ccccc3)cc2=O)cc1)C(=O)[O-].[K+] [Example 46, (−)2-Ethoxy-3-[4-[2-[2-ethyl-6-oxo-4-phenyl-1,6-dihydropyrimidin-1-yl]ethoxy]phenyl]propanoic acid potassium salt]
